Patent US20220202783A1, “Use Of ADAM9 Inhibitor As Immunomodulator” (China Medical University, priority 2019, published 2022)

Key:
[1] = test system: 4T1-luc breast cancer cells; test: syngeneic orthotopic breast tumor animal model, immune cell infiltration; assay type: in vivo, BALB/c mice; details: 10 mg/kg subcutaneous
Excerpt: Please further refer to FIG. 7B, which is a flow chart of the ADAM9 inhibitor used in the treatment of a syngeneic orthotopic breast tumor animal model. In the experiment, 4T1-luc breast cancer cells (5×10^4) were transplanted into the breast fat pads of BALB/c mice to establish the syngeneic orthotopic breast tumor animal model. The IVIS imaging system is used for detection, and the tumor size is represented by the luminous flux of the IVIS image. After tumor images were detected on Day 15, the ADAM9 inhibitor (the compound SW1, 10 mg/kg) was pretreated by subcutaneous injection on Day 16, Day 18, and Day 20. After the tumor was surgically removed on Day 21, the ADAM9 inhibitor (the compound SW1, 10 mg/kg) was continuously treated on Day 23, Day 25, Day 27, Day 29 and Day 31. The surgically resected syngeneic orthotopic breast tumor animal model tumors were stained by immunohistochemistry. In the experiment, a control group was injected with DMSO as a control for the treatment of the ADAM9 inhibitor. Please further refer to FIGS. 8A and 8B, which show the analysis results of the effect of the ADAM9 inhibitor on immune cell infiltration.

[2] = test system: MiaPaCa; test: cytotoxicity on pancreatic cancer cells, MiaPaCa; assay type: cell-based; details: Homo sapiens, MIA PaCa-2
Method: In addition, the IC50 values (unit is μM) of the compound SW1 and the compound SW2 on pancreatic cancer cells were measured in the experiment.

O=C1c2ccccc2C(=O)N1CCc1csc(Nc2nc(CCN3C(=O)c4ccccc4C3=O)cs2)n1 [SW1]
number of infiltrating neutrophils ([1]; 4T1 primary breast tumors and lung metastatic breast tumors): greatly reduced
number of infiltrating T cells ([1]; primary 4T1 breast tumors and lung metastatic breast tumors): increased

O=C(Nc1nc(CCN2C(=O)c3ccccc3C2=O)cs1)c1cc2ccccc2s1 [SW2]
IC50 [2]: 8.5 µM
